One experiment addresses T1, CFTR (Homo sapiens, UniProt P13569, DEL508-508).
T1 construct: Primary human bronchial epithelial cells from a ΔF508 homozygous CF donor; host or cells: primary human bronchial epithelial cells (CF-HBE), ΔF508 homozygous donor
The experiment is described as follows: TECC24 recording of CFTR-mediated transepithelial chloride transport in ΔF508 homozygous CF-HBE cells. In kind it is cell-based. The settings on record: 10 μM test agent, 48 hours incubation, AUC of forskolin-stimulated IEQ divided by vehicle AUC, primary CF-HBE cells. The procedure:
The effects of a test agent on CFTR-mediated transepithelial chloride transport was measured using TECC24 recording analysis. Test agents were solubilized in DMSO. Solubilized test agents were mixed with incubation medium containing DMEM/F12, Ultroser G (2%; Crescent Chemical, catalog #67042), Hyclone Fetal Clone II (2%; GE Healthcare, catalog #SH30066.02), bovine brain extract (0.25%; Lonza, catalog #CC-4098), insulin (2.5 μg/mL), IL-13 (10 ng/mL), hydrocortisone (20 nM), transferrin (2.5 μg/mL), triiodothyronine (500 nM), ethanolamine (250 nM), epinephrine (1.5 μM), phosphoethanolamine (250 nM), and retinoic acid (10 nM). Primary human bronchial epithelial cells from a ΔF508 homozygous CF donor (CF-HBE cells; from University of North Carolina Cystic Fibrosis Tissue Procurement Center), grown on Transwell HTS 24-well cell culture inserts (Costar, catalog #3378), were exposed to test agents or controls dissolved in incubation medium. The CF-HBE cells were cultured at 36.5° C. for 48 hours before TECC24 recordings were performed in the presence or absence of test agent, a positive control or vehicle (DMSO).
Following incubation, the transwell cell culture inserts containing the test agent or control-treated CF-HBE cells were loaded onto a TECC24 apparatus (TECC v7 or MTECC v2; EP Design) to record the transepithelial voltage (VT) and resistance (TEER) using 4 AgCl electrodes per well configured in current-clamp mode. The apical and basolateral bath solutions both contained (in mM) 140 NaCl, 5 KCl, 2 CaCl2, 1 MgCl2, 10 Hepes, and 10 glucose (adjusted to pH 7.4 with NaOH). To inhibit basal Na+ absorption, the ENaC inhibitor benzamil (10 μM) was added to the bath. Then, the adenylate cyclase activator, forskolin (10 μM), was added to the bath to activate CFTR. The forskolin-stimulated Cl— transport was halted by addition of CFTR inhibitor-172 (20 μM) to the bath at the end of the experiment to confirm specificity. VT and TEER recordings were digitally acquired at routine intervals using TECC or MTECC software (EP Design). VT and TEER were transformed into equivalent transpeithelial Cl— current (IEQ), and the Area Under the Curve (AUC) of the IEQ timecourse between forskolin and CFTR inhibitor-172 addition is generated using Excel (Microsoft). Efficacy is expressed as the ratio of the test agent AUC divided by vehicle AUC. EC50s based on AUC are generated using the non-linear regression log(agonist) vs. response function in Prism software (Graphpad) with HillSlope fixed=1.
If a test agent increased the AUC of the forskolin-stimulated IEQ relative to vehicle in CF-HBE cells, and this increase was inhibited by CFTR inhibitor-172, then the test agent was considered a CFTR corrector.

The test system of the next experiment is NBD1/3D. The experiment is described as follows: Aggregation analysis using differential static light scattering (DSLS), NBD1 thermal stability. In kind it is binding, Human. As to conditions: ΔTagg versus DMSO control; compound at 100 μM. A digest of the protocol: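 Thermal stabilisation reported as ΔTagg, i.e. aggregation temperature relative to averaged DMSO wells. Tagg came from the inflection of differential static light scattering imaged 25–70 °C while NBD1 (0.2 mg/ml, Tris pH 7.6 buffer containing ATP, MgCl2, DTT, glycerol) was ramped 1 °C/min.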

SMILES strings stand for the structures.

T1 sequence (P13569 with tags, fused parts or gaps DEL508-508): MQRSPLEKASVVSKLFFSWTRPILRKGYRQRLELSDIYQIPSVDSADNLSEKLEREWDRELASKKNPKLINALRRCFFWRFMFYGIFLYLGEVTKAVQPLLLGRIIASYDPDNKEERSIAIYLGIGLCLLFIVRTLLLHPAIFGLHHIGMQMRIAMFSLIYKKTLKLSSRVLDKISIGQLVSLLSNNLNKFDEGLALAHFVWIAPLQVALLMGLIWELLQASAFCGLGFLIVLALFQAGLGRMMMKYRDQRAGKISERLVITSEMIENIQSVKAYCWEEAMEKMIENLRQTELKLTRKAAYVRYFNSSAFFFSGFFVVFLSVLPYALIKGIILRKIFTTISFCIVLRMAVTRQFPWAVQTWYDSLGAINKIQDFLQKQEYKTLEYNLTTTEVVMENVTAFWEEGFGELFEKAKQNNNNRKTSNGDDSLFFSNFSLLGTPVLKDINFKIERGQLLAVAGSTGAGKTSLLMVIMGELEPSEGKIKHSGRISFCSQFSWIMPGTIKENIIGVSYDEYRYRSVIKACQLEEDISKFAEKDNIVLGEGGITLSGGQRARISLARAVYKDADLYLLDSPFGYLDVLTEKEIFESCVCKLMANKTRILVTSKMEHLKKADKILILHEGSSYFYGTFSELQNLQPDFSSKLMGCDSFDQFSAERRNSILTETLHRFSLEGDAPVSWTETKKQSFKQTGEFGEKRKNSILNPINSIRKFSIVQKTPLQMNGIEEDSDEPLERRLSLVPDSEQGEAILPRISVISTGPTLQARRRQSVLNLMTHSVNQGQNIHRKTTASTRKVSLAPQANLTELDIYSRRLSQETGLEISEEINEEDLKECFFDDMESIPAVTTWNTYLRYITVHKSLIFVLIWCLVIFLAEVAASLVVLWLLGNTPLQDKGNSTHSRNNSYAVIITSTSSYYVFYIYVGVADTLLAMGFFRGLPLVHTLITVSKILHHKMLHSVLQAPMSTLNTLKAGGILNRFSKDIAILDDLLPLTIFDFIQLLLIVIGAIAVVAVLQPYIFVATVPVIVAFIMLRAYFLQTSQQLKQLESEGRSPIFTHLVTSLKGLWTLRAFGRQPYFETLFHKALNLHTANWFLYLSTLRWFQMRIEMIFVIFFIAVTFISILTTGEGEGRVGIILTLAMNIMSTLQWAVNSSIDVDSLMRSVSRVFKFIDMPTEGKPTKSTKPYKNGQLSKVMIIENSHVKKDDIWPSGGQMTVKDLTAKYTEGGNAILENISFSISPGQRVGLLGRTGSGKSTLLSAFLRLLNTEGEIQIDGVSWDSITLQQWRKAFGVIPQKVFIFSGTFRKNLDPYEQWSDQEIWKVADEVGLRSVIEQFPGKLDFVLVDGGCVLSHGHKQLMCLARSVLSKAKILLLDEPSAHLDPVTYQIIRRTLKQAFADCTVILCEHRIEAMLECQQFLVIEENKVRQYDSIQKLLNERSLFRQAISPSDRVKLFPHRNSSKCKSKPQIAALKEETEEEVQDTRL

For `CC(C)OCCOCCC(c1cnc(-c2cc(Oc3c(F)cc4[nH]ccc4c3F)ccc2F)[nH]1)c1cccc(CCC(=O)O)c1F` (single isomer, unassigned) [Example 130B, 3-(3-(1-(2-(5-((4,6-difluoro-1H-indol-5-yl)oxy)-2-fluorophenyl)-1H-imidazol-5-yl)-3-(2-isopropoxyethoxy)propyl)-2-fluorophenyl)propanoic acid], the “TECC24 @ 10 μM over DMSO (AUC fold over DMSO)” value at CFTR is listed as “A (“A” refers to AUC @10 uM >= 12)”. Further, the “DSLS NBD1/3D Human Stability delta-T (° C.) @ 100 (μM)” value (shortened to “DSLS NBD1/3D Human Stability delta-T”) in the experiment on NBD1/3D is “A (A: T ≥ 10° C.)”.
Consider `CC(Cc1cccc(C(C)c2cnc(-c3cc(Oc4c(F)cc5[nH]ccc5c4F)ccc3F)[nH]2)c1F)C(=O)O` (single isomer, unassigned) [Example 137D, 3-(3-(1-(2-(5-((4,6-difluoro-1H-indol-5-yl)oxy)-2-fluorophenyl)-1H-imidazol-5-yl)ethyl)-2-fluorophenyl)-2-methylpropanoic acid], for which, at CFTR, the “TECC24 @ 10 μM over DMSO (AUC fold over DMSO)” value is reported as “A (“A” refers to AUC @10 uM >= 12)”. Also, the “DSLS NBD1/3D Human Stability delta-T” value with NBD1/3D is “A (A: T ≥ 10° C.)”.
The corresponding values for `O=C(O)CCc1cccc(Cc2cnc(-c3cc(Oc4c(F)cc5[nH]ccc5c4CC4CCCS4(=O)=O)ccc3F)[nH]2)c1F` (stereo not drawn) [Example 125, 3-(3-((2-(5-((4-((1,1-dioxidotetrahydrothiophen-2-yl)methyl)-6-fluoro-1H-indol-5-yl)oxy)-2-fluorophenyl)-1H-imidazol-5-yl)methyl)-2-fluorophenyl)propanoic acid] are “A (“A” refers to AUC @10 uM >= 12)” and “A (A: T ≥ 10° C.)”.
The corresponding values for `CC(c1cccc(CCC(=O)O)c1)(c1cnc(-c2cc(Oc3c(F)cc4[nH]ccc4c3S(C)(=O)=O)ccc2F)[nH]1)C(F)F` (stereo not drawn) [Example 276, 3-(3-(1,1-Difluoro-2-(2-(2-fluoro-5-((6-fluoro-4-(methylsulfonyl)-1H-indol-5-yl)oxy)phenyl)-1H-imidazol-5-yl)propan-2-yl)phenyl)propanoic acid] are “C (“C” refers to AUC @ 10 uM <= 4)” and “A (A: T ≥ 10° C.)”.
The corresponding values for `CO[C@]1(C)C[C@@](c2cc(F)cc(CCC(=O)O)c2)(c2cnc(-c3cc(Oc4c(F)c(F)c5[nH]ccc5c4S(C)(=O)=O)ccc3F)[nH]2)C1` [Example 74, 3-(3-((1r,3r)-1-(2-(5-((6,7-difluoro-4-(methylsulfonyl)-1H-indol-5-yl)oxy)-2-fluorophenyl)-1H-imidazol-5-yl)-3-methoxy-3-methylcyclobutyl)-5-fluorophenyl)propanoic acid] are “A (“A” refers to AUC @10 uM >= 12)” and “A (A: T ≥ 10° C.)”.
With `CS(=O)(=O)c1c(Oc2ccc(F)c(-c3ncc(C4(c5cccc(CCC(=O)O)c5)CCOC4)[nH]3)c2)c(F)cc2[nH]ccc12` (stereo not drawn) [Example 45, 3-(3-(3-(2-(2-Fluoro-5-((6-fluoro-4-(methylsulfonyl)-1H-indol-5-yl)oxy)phenyl)-1H-imidazol-5-yl)tetrahydrofuran-3-yl)phenyl)propanoic acid], the “TECC24 @ 10 μM over DMSO (AUC fold over DMSO)” value at CFTR is given as “B (“B” refers to AUC @10 uM between 4-12)”. Moreover, the “DSLS NBD1/3D Human Stability delta-T” value in the experiment with NBD1/3D is on record as “A (A: T ≥ 10° C.)”.
Turning to `CS(=O)(=O)CCc1c(Oc2ccc(F)c(-c3ncc(Cc4cccc(CCC(=O)O)c4F)[nH]3)c2)c(F)cc2[nH]ccc12` [Example 126, 3-(2-fluoro-3-((2-(2-fluoro-5-((6-fluoro-4-(2-(methylsulfonyl)ethyl)-1H-indol-5-yl)oxy)phenyl)-1H-imidazol-5-yl)methyl)phenyl)propanoic acid], on CFTR, the “TECC24 @ 10 μM over DMSO (AUC fold over DMSO)” value is recorded as “B (“B” refers to AUC @10 uM between 4-12)”. In the experiment with NBD1/3D, the “DSLS NBD1/3D Human Stability delta-T” value is “A (A: T ≥ 10° C.)”.
The like results for `CP(C)(=O)c1c(Oc2cccc(-c3nc(C(O)c4cccc(CCC(=O)O)c4)cs3)c2)c(F)cc2[nH]ccc12` (stereo not drawn) [Example 97, 3-(3-((2-(3-((4-(Dimethylphosphoryl)-6-fluoro-1H-indol-5-yl)oxy)phenyl)thiazol-4-yl)(hydroxy)methyl)phenyl)propanoic acid] were, in that order, “C (“C” refers to AUC @ 10 uM <= 4)” and “B (B: 5-10° C.)”.
Consider `CC(c1cccc(CCC(=O)O)c1F)n1ccc(-c2cc(Oc3c(F)cc4[nH]ccc4c3S(C)(=O)=O)ccc2F)n1` (single isomer, unassigned) [Example 41B, 3-(2-fluoro-3-(1-(3-(2-fluoro-5-((6-fluoro-4-(methylsulfonyl)-1H-indol-5-yl)oxy)phenyl)-1H-pyrazol-1-yl)ethyl)phenyl)propanoic acid], for which, on CFTR, the “TECC24 @ 10 μM over DMSO (AUC fold over DMSO)” value is listed as “A (“A” refers to AUC @10 uM >= 12)”. Besides, the “DSLS NBD1/3D Human Stability delta-T” value with NBD1/3D is “A (A: T ≥ 10° C.)”.
The like results for `Cc1c(Oc2ccc(F)c(-c3ncc([C@]4(c5cccc(CCC(=O)O)c5)C[C@H](O)CO4)[nH]3)c2)c(F)cc2[nH]ccc12` (racemic) [Example 274, rac-3-(3-((2r,4s)-2-(2-(2-Fluoro-5-((6-fluoro-4-methyl-1H-indol-5-yl)oxy)phenyl)-1H-imidazol-5-yl)-4-hydroxytetrahydrofuran-2-yl)phenyl)propanoic acid] were, in that order, “C (“C” refers to AUC @ 10 uM <= 4)” and “A (A: T ≥ 10° C.)”.
The corresponding values for `O=C(O)CCc1cccc(C2(c3cnc(-c4cc(Oc5c(F)c(F)c6[nH]ccc6c5F)ccc4F)[nH]3)CCOCC2)c1` [Example 167, 3-(3-(4-(2-(2-fluoro-5-((4,6,7-trifluoro-1H-indol-5-yl)oxy)phenyl)-1H-imidazol-4-yl)tetrahydro-2H-pyran-4-yl)phenyl)propanoic acid] are “C (“C” refers to AUC @ 10 uM <= 4)” and “A (A: T ≥ 10° C.)”.
On to `[2H]C([2H])([2H])C(C#N)(c1cccc(CCC(=O)O)c1)c1cnc(-c2cc(Oc3c(F)c(F)c4[nH]ccc4c3F)ccc2F)[nH]1` (single isomer, unassigned) [Example 64B, 3-(3-(1-Cyano-1-(2-(2-fluoro-5-((4,6,7-trifluoro-1H-indol-5-yl)oxy)phenyl)-1H-imidazol-5-yl)ethyl-2,2,2-d3)phenyl)propanoic acid], for which, on CFTR, the “TECC24 @ 10 μM over DMSO (AUC fold over DMSO)” value was “A (“A” refers to AUC @10 uM >= 12)”. For the same molecule, in the experiment on NBD1/3D, the “DSLS NBD1/3D Human Stability delta-T” value is on record as “B (B: 5-10° C.)”.
The like results for `CC(c1ccn(-c2cccc(Oc3c(F)cc4[nH]ccc4c3S(C)(=O)=O)c2)n1)c1cccc(CCC(=O)O)c1F` (single isomer, unassigned) [Example 23B, 3-(2-fluoro-3-(1-(1-(3-((6-fluoro-4-(methylsulfonyl)-1H-indol-5-yl)oxy)phenyl)-1H-pyrazol-3-yl)ethyl)phenyl)propanoic acid] were, in that order, “A (“A” refers to AUC @10 uM >= 12)” and “A (A: T ≥ 10° C.)”.
As to `O=C(O)CCc1cc(F)cc(Cc2cnc(-c3cc(Oc4c(F)cc5[nH]ccc5c4F)ccc3F)[nH]2)c1F` [Example 124, 3-(3-((2-(5-((4,6-difluoro-1H-indol-5-yl)oxy)-2-fluorophenyl)-1H-imidazol-5-yl)methyl)-2,5-difluorophenyl)propanoic acid], the “TECC24 @ 10 μM over DMSO (AUC fold over DMSO)” value on CFTR is reported as “B (“B” refers to AUC @10 uM between 4-12)”. Further, the “DSLS NBD1/3D Human Stability delta-T” value with NBD1/3D is reported as “B (B: 5-10° C.)”.
The corresponding values for `CNC(c1cccc(CCC(=O)O)c1)c1cnc(-c2cccc(Oc3c(F)cc4[nH]ccc4c3F)c2)[nH]1` (stereo not drawn) [Example 266, 3-(3-((2-(3-((4,6-Difluoro-1H-indol-5-yl)oxy)phenyl)-1H-imidazol-5-yl)(methylamino)methyl)phenyl)propanoic acid] are “C (“C” refers to AUC @ 10 uM <= 4)” and “A (A: T ≥ 10° C.)”.
